The supplement of paper PMC10307832

Columns and labels:
Assay in all cases: relative viability (nuclei count vs DMSO), 5 days (fraction); higher = more cells survive
Shikonin + OSI-027 = compound: CC(C)=CC[C@@H](O)C1=CC(=O)c2c(O)ccc(O)c2C1=O [Shikonin] + COc1cccc2cc(-c3nc([C@H]4CC[C@H](C(=O)O)CC4)n4ncnc(N)c34)[nH]c12 [OSI-027] (partner 0.5 µM)
Outline: (§1)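 Relative viability is defined as nuclei in treated wells over nuclei in vehicle wells. Duplicate plates were run and medians reported. Lung cancer cell lines in 1536-well plates were dosed by pin tool one day after seeding, with one drug or with a fixed anchor-drug dose plus five library-drug doses (not always all listed) in √10 steps, and nuclei were counted after 5 days.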

Shikonin + Navitoclax = compound: CC(C)=CC[C@@H](O)C1=CC(=O)c2c(O)ccc(O)c2C1=O [Shikonin] + CC1(C)CCC(c2ccc(Cl)cc2)=C(CN2CCN(c3ccc(C(=O)NS(=O)(=O)c4ccc(N[C@H](CCN5CCOCC5)CSc5ccccc5)c(S(=O)(=O)C(F)(F)F)c4)cc3)CC2)C1 [Navitoclax] (partner 0.5 µM)
Outline: as §1

[1] = compound: CC(C)N(CCCNC(=O)Nc1ccc(C(C)(C)C)cc1)C[C@H]1O[C@@H](n2ccc3c(N)ncnc32)[C@H](O)[C@@H]1O + CS(=O)(=O)CCNCc1ccc(-c2ccc3ncnc(Nc4ccc(OCc5cccc(F)c5)c(Cl)c4)c3c2)o1 [Lapatinib] (partner 2 µM)
Outline: as §1

[2] = compound: CC(C)N(CCCNC(=O)Nc1ccc(C(C)(C)C)cc1)C[C@H]1O[C@@H](n2ccc3c(N)ncnc32)[C@H](O)[C@@H]1O + CC1(C)CCC(c2ccc(Cl)cc2)=C(CN2CCN(c3ccc(C(=O)NS(=O)(=O)c4ccc(N[C@H](CCN5CCOCC5)CSc5ccccc5)c(S(=O)(=O)C(F)(F)F)c4)cc3)CC2)C1 [Navitoclax] (partner 0.5 µM)
Outline: as §1

Cell Line: UMC-11
- relative viability (Shikonin + OSI-027; first compound 0.01 µM): 0.469
- relative viability (Shikonin + OSI-027; first compound 0.1 µM): 0.532
- relative viability (Shikonin + OSI-027; first compound 0.3162 µM): 0.492
- relative viability (Shikonin + OSI-027; first compound 1 µM): 0.526
- relative viability (Shikonin + Navitoclax; first compound 0.01 µM): 0.282
- relative viability (Shikonin + Navitoclax; first compound 0.1 µM): 0.324
- relative viability (Shikonin + Navitoclax; first compound 0.3162 µM): 0.31
- relative viability (Shikonin + Navitoclax; first compound 1 µM): 0.318
- relative viability ([1]; first compound 0.08 µM): 0.864
- relative viability ([1]; first compound 0.253 µM): 0.772
- relative viability ([1]; first compound 0.8 µM): 0.846
- relative viability ([1]; first compound 2.53 µM): 1.02
- relative viability ([1]; first compound 8 µM): 1.05
- relative viability ([2]; first compound 0.08 µM): 0.296
- relative viability ([2]; first compound 0.253 µM): 0.329
- relative viability ([2]; first compound 0.8 µM): 0.319
- relative viability ([2]; first compound 2.53 µM): 0.302
- relative viability ([2]; first compound 8 µM): 0.294
